How the values were obtained:
[1] = system: Pseudomonas aeruginosa-injected T. molitor larvae; test: Mortality of Pseudomonas aeruginosa-injected T. molitor larvae; assay type: in vivo, Tenebrio molitor; conditions: 10 μM; 20 days of incubation; FIG. 10
Procedure: The mortality of Tenebrio molitor (T. molitor) larvae was measured with a positive control or compound (0-10 μM) by the method used as in previous research. Overnight-cultured P. aeruginosa (OD 595 nm=1.0) was centrifuged for 10 minutes at 10,000 rpm. The supernatant was filtered through a 0.22-μm filter, and injected into the larvae using a syringe needle. The larvae were stored in a petri dish for 20 days at 25° C. The mortality of the larvae was measured every 5 days.

[2] = system: rhlR variant of P. aeruginosa; test: Pyocyanin production assay, rhlR variant; assay type: cell-based, Pseudomonas aeruginosa; conditions: 10 μM, FIG. 9C
Procedure: P. aeruginosa cultured overnight with a positive control or compound (0-10 μM) was inoculated in an AB medium, incubated for 24 hours at 37° C., and centrifuged for 10 minutes at 10,000 rpm. To extract pyocyanin, the supernatant was reacted with 50% trifluoroacetic acid (TFA, Sigma-Aldrich) for 1 hour at 37° C. The reacted supernatant was centrifuged for 10 minutes at 10,000 rpm, and filtered through a 0.22-μm filter. […] Specific HPLC conditions are as follows: mobile phase deionized water; TFA (99:1); injection volume:10 μL; temperature: 25° C.; and flow rate: 0.5 mL/min. The retention time of pyocyanin (Sigma-Aldrich) is 20 minutes. To measure a pyocyanin amount, when the retention time was 20 minutes, the height of an analysis peak was detected.

Pseudomonas aeruginosa [3] = test: EPS analysis of drip-flow biofilm cells (carbohydrates, proteins); assay type: cell-based; conditions: 10 μM
Procedure: EPS analysis was carried out with the biofilm cells attached to the slides after the operation of the drip-flow reactor. The biofilm cells that were centrifuged were re-suspended with 0.01M KCl, and for the analysis of carbohydrates and proteins, the cells were disrupted with a sonicator (VCX 750, SONICS, Newtown, Conn., USA) for 5 seconds at a level of 3.5 Hz, followed by stopping for 5 seconds, which was repeated 4 times. A supernatant of the cell-disrupted suspension was filtered through a 0.22 μm membrane filter (Millex filter, Carl Roth, Karlsruhe, Germany). For protein analysis, a mixture containing 40 μL of the filtrate and 200 μL of a Lowry reagent (L3540, Sigma-Aldrich) was incubated at room temperature for 10 minutes. Afterward, 20 μL of a Folin-Ciocalteu reagent (Sigma-Aldrich) was added and incubated at room temperature for 30 minutes, followed by measuring OD at 750 nm using a multimode plate reader. A protein amount was quantified at OD 750 nm or OD 595 nm. For carbohydrate analysis, a mixture containing 50 μL of the filtrate and 150 μL of 99.9% sulfuric acid was incubated at room temperature for 30 minutes. Afterward, 5% phenol was added, followed by incubation at 90° C. for 5 minutes. OD was measured at 490 nm using a multimode plate reader. The amount of carbohydrates was quantified at OD 490 nm or OD 595 nm.

Pseudomonas aeruginosa [4] = test: Bacterial growth under static condition (OD 595 nm of suspended culture); assay type: cell-based; conditions: for activity at 10 µM / activity at 100 µM: Pseudomonas aeruginosa, 24 h; for activity at 10 µM: read-out: Relative biological activity (%) Bacterial growth 10; for activity at 100 µM: read-out: Relative biological activity (%) Bacterial growth 100
Procedure: Pseudomonas aeruginosa (P. aeruginosa) (OD 595 nm=1.0) was cultured overnight, and diluted in an AB medium (1:20; 300 mM NaCl, 50 mM MgSO4, 0.2% vitamin-free casamino acids, 10 mM potassium phosphate, 1 mM L-arginine, and 1% glucose, pH 7.5) together with a positive control or compound (0100 μM) in a borosilicate bottle. The resulting mixture was incubated without shaking at 37° C. for 24 hours, and to measure growth inhibition activity. OD 595 nm of the suspended culture was measured using a multimode plate reader. Biofilm cells attached to the bottle were washed twice with phosphate-buffered saline (PBS; 137 mM NaCl, 2.7 mM KCl, 10 mM Na2HPO4, and 2 mM KH2PO4, pH 7.2). Afterward, the remaining biofilm cells were stained with 0.1% crystal violet for 10 minutes, and to remove the unbound crystal violet, washed with deionized water. The crystal violet […] to the biofilm cells was eluted with 100% ethanol, and the OD of the eluted ethanol sample was measured at 545 nm using a multimode plate reader.

Pseudomonas aeruginosa [5] = test: Dynamic biofilm formation assay (drip-flow reactor, CLSM); assay type: cell-based; conditions: 48 hours, 10 μM, smaller volume and thickness than control
Procedure: Glass slides were placed in a drip-flow reactor, and an AB medium containing 5% P. aeruginosa (OD 595 nm=1.0) was added along with a positive control or compound (0 to 10 μM) and the reactor was continuously operated using peristaltic pumps (Masterflex C/L tubing pumps, Cole-Parmer, Ill., USA) at 0.3 ml/min. After the above-described process was carried out at 37° C. for 48 hours, unattached biofilm cells were removed with PBS. The remaining biofilm cells were stained with DAPI (Sigma-Aldrich) for 10 minutes, and observed by confocal laser scanning microscopy (CLSM; Carl Zeiss LSM700, Jena, Germany). The CLSM image of the biofilm cells was obtained with a 20× objective lens (W NAchroplanX20/0.5W (DIC) M27) under blue fluorescence light (excitation wavelength: 350 nm, emission wavelength: 470 nm) using a Z-stack mode of the Zen 2011 program. The volume and thickness of the biofilm were measured using Comstat2 of the ImageJ program based on a CLSM image.

rhlA = test: RT-qPCR analysis of rhlA expression in biofilm cells; assay type: cell-based, Pseudomonas aeruginosa; conditions: 10 μM, FIG. 9B
Procedure: P. aeruginosa (OD 595 nm=1.0) overnight cultured with a positive control or compound (0-10 μM) was diluted (1:20) in an AB medium in a borosilicate bottle. Afterward, after culture for 24 hours at 37° C., biofilm cells were collected for RNA extraction. Total RNA was extracted using a TRI reagent (Molecular Research Center, OH, USA) according to the manufacturer's instruction. To quantify and compare QS-related gene expression levels, RT-qPCR was performed. For RT-qPCR, a SYBR Premix Ex Taq™ (Takara, Shiga, Japan), a CFX-96 real-time system (Bio-Rad, Hercules, Calif. USA), and a QS-related gene primer set were used. The thermal profile of the RT-qPCR is as follows: 40 cycles of initial denaturation for 10 seconds at 95° C., denaturation for 10 seconds at 95° C., annealing for 10 seconds at 60° C., and extension for 34 seconds at 63° C. A fluorescent signal intensity was collected at the end of the elongation step.

LasR = target: T1, LasR (Pseudomonas aeruginosa, UniProt P25084); conditions: previous studies; cited from earlier work
T1 construct: expressed in transfected cells; host or cells: E. coli DH5a co-transformed with pJN105L and pSC11 (lasI::lacZ)
T1 sequence (P25084 whole entry): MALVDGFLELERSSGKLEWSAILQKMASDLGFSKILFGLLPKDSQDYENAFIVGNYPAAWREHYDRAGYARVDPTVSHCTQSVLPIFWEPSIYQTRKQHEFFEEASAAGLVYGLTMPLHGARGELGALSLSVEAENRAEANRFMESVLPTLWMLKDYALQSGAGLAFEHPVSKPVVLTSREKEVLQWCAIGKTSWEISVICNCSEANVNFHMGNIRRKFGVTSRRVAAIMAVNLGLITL

SMILES | larvae survived to the end of the incubation [1] | virulence factor (pyocyanin) production vs control of the rhlR variant [2] | reduction of the amount of carbohydrates in EPS (Pseudomonas aeruginosa [3]; FIG. 8B) [%] | reduction of the amount of proteins in EPS (Pseudomonas aeruginosa [3]; FIG. 8C) [%] | effect on cell growth (in words) (Pseudomonas aeruginosa [4]; 100 PM [sic] (100 μM)) | activity at 10 µM (Pseudomonas aeruginosa [4]) [%] | activity at 100 µM (Pseudomonas aeruginosa [4]) [%] | biofilm appearance under flow condition vs control (Pseudomonas aeruginosa [5]) | downregulation of rhlA expression of biofilm cells (rhlA) [%] | LasR antagonistic activity (reported previously) (LasR)
CCCC(=O)C#Cc1ccc(F)c(F)c1 [Compound 30, 1-(3,4-Difluorophenyl)hex-1-yn-3-one] | approximately 80% | no difference | 39 | 72 | no effect | 103 | 99 | – | – | –
CCCCC[C@H](O)CC(=O)CCc1ccc(O)c(OC)c1 [Compound 1c, (S)-6-gingerol, reference compound] | – | – | – | – | – | 96 | 101 | thinner and more dispersed biofilm | 38 | LasR antagonistic activity
